Structures can show the parent of a compound that is named as a salt.
Tests used:
[1] = target: T1, dopamine autoreceptor (D2 Quin.) (Rattus norvegicus, UniProt P61169); assay: Affinity for the dopamine autoreceptor, [3H]-quinpirole binding in homogenized rat striatal brain tissue
T1 construct: from tissue; host or cells: rat striatal brain tissue homogenate
Method: Affinity for the dopamine autoreceptor was established by a modification of the standard experimental test procedure of Seemen and Schaus, European Journal of Pharmacology 203: 105-109, 1991, wherein homogenized rat striatal brain tissue is incubated with [^3H]-quinpirole (Quin.) at various concentrations of test compound, filtered, washed and counted in a Betaplate scintillation counter.

dopamine D2 receptor = assay: Affinity for the dopamine D2 receptor, [3H]-spiperidone binding in homogenized limbic brain tissue; conditions: ratio of IC50 D2 Spiper to IC50 D2 Quin. (LowAg/HighAg)
Method: High affinity for the dopamine D2 receptor was established by the standard experimental test procedure of Fields, et al., Brain Res., 136, […] (1977) and Yamamura et al., ed., Neurotransmitter Receptor Binding, Chapter 9, page 171, Raven Press, N.Y. (1978) wherein homogenized limbic brain tissue is incubated with [^3H]-spiperidone at various concentrations of test compound, filtered washed, and shaken with Hydrofluor scintillation cocktail (National Diagnostics) and counted in a Packard 460 CD scintillation counter.

T1 sequence (P61169 whole entry): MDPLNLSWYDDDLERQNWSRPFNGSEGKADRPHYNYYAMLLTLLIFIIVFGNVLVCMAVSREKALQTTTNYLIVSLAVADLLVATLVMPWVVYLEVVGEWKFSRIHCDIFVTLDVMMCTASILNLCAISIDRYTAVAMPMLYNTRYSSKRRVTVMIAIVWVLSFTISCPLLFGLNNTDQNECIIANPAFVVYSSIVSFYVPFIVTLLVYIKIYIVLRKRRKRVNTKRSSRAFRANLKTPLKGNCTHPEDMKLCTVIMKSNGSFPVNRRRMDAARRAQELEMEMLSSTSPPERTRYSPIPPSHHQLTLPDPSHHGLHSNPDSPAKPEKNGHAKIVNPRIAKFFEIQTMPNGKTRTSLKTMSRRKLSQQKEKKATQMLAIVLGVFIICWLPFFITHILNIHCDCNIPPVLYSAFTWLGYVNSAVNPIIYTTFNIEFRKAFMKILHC

Row | melting point [°C] | Compound | IC50 [1] [nM] | Ratio (dopamine D2 receptor)
1 |  | O=c1[nH]c2ccc3c(c2[nH]1)OC(CNCc1ccccc1)CC3 (stereo not drawn) [Example 1, 8-(Benzylamino-methyl)-3,5,7,8-tetrahydro-9-oxa-1,3-diaza-cyclopenta[a]naphthalen-2-one] | 0.29 | 309
2 | 229 | O=c1[nH]c2c([nH]1)=C1OC(CNCc3ccccc3)CC=C1CC=2 (stereo not drawn) (as salt: oxalate) [Example 1, 8-(Benzylamino-methyl)-3,5,7,8-tetrahydro-9-oxa-1,3-diaza-cyclopenta[a]naphthalen-2-one] |  | 

From patent US6541501B2, “2-(aminomethyl)-tetrahydro-9-oxa-1,3-diaza-cyclopenta[a]-naphthalenyl derivatives with antipsychotic activity” (Wyeth, priority 2001, dated 2003)
